Data published in patent US12281102B2, “Inhibitors of APOL1 and methods of using same” (Vertex Pharmaceuticals Incorporated, priority 2020, dated 2025).

What follows are molecules tested against T1, G1 APOL1 (Homo sapiens, UniProt O14791, I384M/S342G) (assay: Acute APOL1 Thallium Assay with inducible stable clones of HEK 293 cells). Settings: HEK 293 T-Rex inducible stable clone expressing G1 APOL1; read-out: Thallium Assay (IC50).
T1 construct: expressed in transfected cells
T1 sequence (O14791 28-398 S342G/I384M): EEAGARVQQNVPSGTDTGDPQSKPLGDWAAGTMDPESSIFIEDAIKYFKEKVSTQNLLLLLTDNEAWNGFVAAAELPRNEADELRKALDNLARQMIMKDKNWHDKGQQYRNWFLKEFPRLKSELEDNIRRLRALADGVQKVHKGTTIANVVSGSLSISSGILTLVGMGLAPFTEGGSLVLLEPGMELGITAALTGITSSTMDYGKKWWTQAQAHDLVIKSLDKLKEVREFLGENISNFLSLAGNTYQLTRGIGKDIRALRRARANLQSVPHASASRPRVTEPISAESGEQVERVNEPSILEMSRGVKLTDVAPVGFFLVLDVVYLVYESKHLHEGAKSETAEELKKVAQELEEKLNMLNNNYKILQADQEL
Type: cell-based
From the text: Acute APOL1 Thallium Assay with Inducible Stable Clones of HEK 293 Cells
Apolipoprotein L1 (APOL1) proteins form potassium-permeable cation pores in the plasma membrane. APOL1 risk variants (G1 and G2) induce greater potassium flux than G0 in HEK293 cells. This assay exploits the permeability of thallium (T1+) through ligand-gated potassium channels. The dye produces a bright fluorescent signal upon binding to T1+ conducted through potassium channels. The intensity of the T1+ signal is proportional to the number of potassium channels in the open state. Therefore, it provides a functional indication of the potassium channel activities. During the initial dye-loading step, the T1+ indicator dye as an acetoxymethyl (AM) ester enters the cells through passive diffusion. Cytoplasm esterases cleave the AM ester and relieve its active thallium-sensitive form. The cells are then stimulated with T1+. The increase of fluorescence in the assay represents the influx of T1+ into the cell specifically through the potassium channel (i.e. through APOL1 pores), providing a functional measurement of potassium channel/pore activity. The Thallium assay is conducted with cells expressing G1 APOL1.
APOL1 Cell Line (HEK T-Rex Stable Inducible Cell Line)
• HEK T-Rex System • Tetracycline (Tet) inducible mammalian expression system. • Stably express the Tet repressor to regulate transcription. • Expression under the full-length CMV promoter. • APOL1 stable inducible cell line Clone used: G1 DC3.25 Tissue Culture Media Cell Culture Medium • DMEM+10% FBS+P/S+5 μg/mL blasticidin+1 μg/mL puromycin. • 500 mL DMEM+55 mL FBS+5 mL P/S+280 μL blasticidin S HCl (10 mg/mL)+56 μL puromycin (10 mg/mL). Cell Assay Medium • DMEM with 2% FBS+penicillin streptomycin. Reagents:
Instruments and Equipment • Nuaire cell culture hood, Cat. No. 540-600 • 37° C./5% CO2 incubator link to robotic arm, Liconic: STX110 • Molecular Devices FLIPR^Tetra High throughput cellular screening system, Cat. No. FT0324, Molecular Devices • ThermoFisher MultiDrop 384, Cat. No. 5840300 • Biotek Microfill, Cat. No. ASF1000A-4145 • BioRad TC10 cell counter, Cat. No. 145-0010 Assay Procedures Cells Scaled Up from Frozen Vials • APOL1 G1 3.25 (HEK293 T-Rex) frozen vials: 5 million cells per vial • Step 1, Day 1: Defrost frozen vial into T-225. • Step 2, Day 5: (when 85% confluent): Split one T-225 at 3×10^6 cells per flask. • Step 3, Day 8: Splits cells to set up for the assay plates as described below. Cell Culture
T-Rex APOL1 HEK cells are split twice per week to keep the confluence state below 85% of the culture flask surface area. Cells can be kept until passage 25.
• DMEM high glucose+10% FBS, +P/S, +5 μg/mL blasticidin, +1 μg/mL puromycin. • 500 mL DMEM, +55 mL FBS, +5 mL P/S, +280 μL blasticidin 10 mg/mL, +56 μL Puromycin 10 mg/mL. Assay Media • Opti-MEM reduced serum medium from Invitrogen. Day 1 Preparation of Cell Assay Plates • Culture medium is removed from the x cm^2 T-flask by aspiration. • The cell monolayer is rinsed with PBS 1× at room temperature. PBS is removed by aspiration. • Cells are trypsinized using Trypsin. • The flasks are incubated at room temperature for 2-3 minutes. • Complete DMEM medium is then added. Cell suspension is then transferred to a 50 mL Falcon polypropylene tube. • Cells are then counted using a BioRad TC10 cell counter and the required amount of cells are centrifuged at 1200 RPM for 5 minutes. Required amount is 1.3×10^6 cells/mL APOL1 T-Rex HEK cells. • The pellet is suspended in the assay medium. • Using the MultiDrop, add 20 μL to each well (corresponds to 26000 cells total per well) of a 384-well black, transparent, flat bottom Poly-D coated plate. • Tetracycline as prepared in the following section is added to the cells before plating to induce APOL1 expression. • Plates are left at room temperature for 20 to 30 minutes before incubation at 37° C. and 5% CO2. […]
`CC(CCO)NS(=O)(=O)NC[C@H]1C[C@H](c2c(-c3ccc(F)cc3)[nH]c3c(F)cc(F)cc32)C1` (mixture of isomers) [Compound 362] gave an IC50 of 250 to 1000 nM.
In the case of `CC1(CO)CCN1S(=O)(=O)NC[C@H]1C[C@H](c2c(-c3ccc(F)cc3)[nH]c3c(F)cc(F)cc32)C1` (mixture of isomers) [Compound 364], the IC50 is reported as greater than 1000 nM.
`CC(NC(=O)O[C@H]1C[C@H](c2c(-c3ccc(F)cc3)[nH]c3c(F)cc(F)cc32)C1)C(N)=O` (mixture of isomers) [Compound 456, [3-[5,7-difluoro-2-(4-fluorophenyl)-1H-indol-3-yl]cyclobutyl]N-(2-amino-1-methyl-2-oxo-ethyl)carbamate] was tested, and the IC50 was greater than 1000 nM.
Molecule `NC1CC(c2c(-c3ccc(C4CC4)cc3)[nH]c3ccc(F)cc23)C1` (centres unmarked) [Compound 7, 3-[2-(4-cyclopropylphenyl)-5-fluoro-1H-indol-3-yl]cyclobutanamine] has an IC50 of 250 to 1000 nM.
Molecule `NC1CC(c2c(-c3ccc(OC(F)(F)F)cc3)[nH]c3c(F)cc(F)cc23)C1` (centres unmarked) [Compound 8, 3-[5,7-difluoro-2-[4-(trifluoromethoxy)phenyl]-1H-indol-3-yl]cyclobutanamine] has an IC50 of 250 to 1000 nM.
`NC1CC(c2c(-c3ccc(OC(F)F)cc3)[nH]c3c(F)cc(F)cc23)C1` (centres unmarked) [Compound 9] gave an IC50 of less than 250 nM.
`O=C(NC1CC(c2c(-c3ccc(F)cc3)[nH]c3c(F)cc(F)cc23)C1)OCc1ccccc1` (centres unmarked) [Compound 13, benzyl N-[3-[5,7-difluoro-2-(4-fluorophenyl)-1H-indol-3-yl]cyclobutyl]carbamate] gave an IC50 greater than 1000 nM.
`CC(=O)Nc1ccn(C2CC(c3c(-c4ccc(F)cc4)[nH]c4c(F)cc(F)cc34)C2)n1` (centres unmarked) [Compound 19, N-[1-[3-[5,7-difluoro-2-(4-fluorophenyl)-1H-indol-3-yl]cyclobutyl]pyrazol-3-yl]acetamide] gave an IC50 greater than 1000 nM.
`O=C1NCC[C@@H]1NC1CC(c2c(-c3ccc(F)cc3)[nH]c3c(F)cc(F)cc23)C1` (stereo partly drawn) [Compound 20, (3S)-3-[[3-[5,7-difluoro-2-(4-fluorophenyl)-1H-indol-3-yl]cyclobutyl]amino]pyrrolidin-2-one] gave an IC50 of less than 250 nM.
`OCC1(NC2CC(c3c(-c4ccc(F)cc4)[nH]c4c(F)cc(F)cc34)C2)CC1` (centres unmarked) [Compound 21] was tested, and the IC50 was 250 to 1000 nM.
Molecule `Fc1ccc(-c2[nH]c3c(F)cc(F)cc3c2C2CC(NC3COC3)C2)cc1` (centres unmarked) [Compound 22] has an IC50 greater than 1000 nM.
With `CC(=O)NCCNC1CC(c2c(-c3ccc(F)cc3)[nH]c3c(F)cc(F)cc23)C1` (centres unmarked) [Compound 23] the IC50 was greater than 1000 nM.
`CN(C1COC1)C1CC(c2c(-c3ccc(F)cc3)[nH]c3c(F)cc(F)cc23)C1` (centres unmarked) [Compound 24] was tested, and the IC50 was greater than 1000 nM.
With `OCCNC1CC(c2c(-c3ccc(F)cc3)[nH]c3c(F)cc(F)cc23)C1` (centres unmarked) [Compound 25] the IC50 was 250 to 1000 nM.
`Fc1ccc(-c2[nH]c3c(F)cc(F)cc3c2C2CC(NCC(F)F)C2)cc1` (centres unmarked) [Compound 26] was tested, and the IC50 was 250 to 1000 nM.
`O=C(N[C@H]1C[C@@H](c2c(-c3ccc(F)cc3)[nH]c3c(F)cc(F)cc32)C1)OCc1ccccc1` [Compound 27, benzyl((1s,3s)-3-(5,7-difluoro-2-(4-fluorophenyl)-1H-indol-3-yl)cyclobutyl)carbamate] gave an IC50 greater than 1000 nM.
Molecule `O=C(CO)N[C@H]1C[C@@H](c2c(-c3ccc(F)cc3)[nH]c3c(F)cc(F)cc32)C1` [Compound 29, N-((1s,3s)-3-(5,7-difluoro-2-(4-fluorophenyl)-1H-indol-3-yl)cyclobutyl)-2-hydroxyacetamide] has an IC50 of 250 to 1000 nM.
Molecule `O=C(CC1CC(F)(F)C1)N[C@H]1C[C@@H](c2c(-c3ccc(F)cc3)[nH]c3c(F)cc(F)cc32)C1` [Compound 31] has an IC50 greater than 1000 nM.
For `CS(=O)(=O)CCCC(=O)N[C@H]1C[C@@H](c2c(-c3ccc(F)cc3)[nH]c3c(F)cc(F)cc32)C1` [Compound 32], the IC50 was greater than 1000 nM.
Work on `O=C(Cn1cnnc1)N[C@H]1C[C@@H](c2c(-c3ccc(F)cc3)[nH]c3c(F)cc(F)cc32)C1` [Compound 33] yielded an IC50 greater than 1000 nM.
`O=C(CC1CCOCC1)N[C@H]1C[C@@H](c2c(-c3ccc(F)cc3)[nH]c3c(F)cc(F)cc32)C1` [Compound 34] was tested, and the IC50 was greater than 1000 nM.
For `COC1(CC(=O)N[C@H]2C[C@@H](c3c(-c4ccc(F)cc4)[nH]c4c(F)cc(F)cc43)C2)CCC1` [Compound 37], the IC50 was greater than 1000 nM.
In the case of `CN(CC(=O)N[C@H]1C[C@@H](c2c(-c3ccc(F)cc3)[nH]c3c(F)cc(F)cc32)C1)S(C)(=O)=O` [Compound 38], the IC50 is reported as greater than 1000 nM.
Work on `CN1CCCC(CC(=O)N[C@H]2C[C@@H](c3c(-c4ccc(F)cc4)[nH]c4c(F)cc(F)cc43)C2)C1` (some centres unmarked) [Compound 39] yielded an IC50 greater than 1000 nM.
With `Cn1ccc(CC(=O)N[C@H]2C[C@@H](c3c(-c4ccc(F)cc4)[nH]c4c(F)cc(F)cc43)C2)n1` [Compound 41] the IC50 was greater than 1000 nM.
`CS(=O)(=O)NCC(=O)N[C@H]1C[C@@H](c2c(-c3ccc(F)cc3)[nH]c3c(F)cc(F)cc32)C1` [Compound 42] was tested, and the IC50 was greater than 1000 nM.
With `CCS(=O)(=O)NCC(=O)N[C@H]1C[C@@H](c2c(-c3ccc(F)cc3)[nH]c3c(F)cc(F)cc32)C1` [Compound 43] the IC50 was greater than 1000 nM.
`O=C(CCN1CCCC1)N[C@H]1C[C@@H](c2c(-c3ccc(F)cc3)[nH]c3c(F)cc(F)cc32)C1` [Compound 44] was tested, and the IC50 was greater than 1000 nM.
`CN1CCC(CC(=O)N[C@H]2C[C@@H](c3c(-c4ccc(F)cc4)[nH]c4c(F)cc(F)cc43)C2)C1` (some centres unmarked) [Compound 45] was tested, and the IC50 was greater than 1000 nM.
Molecule `O=C(CN1CCCC1)N[C@H]1C[C@@H](c2c(-c3ccc(F)cc3)[nH]c3c(F)cc(F)cc32)C1` [Compound 46] has an IC50 greater than 1000 nM.
With `O=C(CC1(O)CCCCC1)N[C@H]1C[C@@H](c2c(-c3ccc(F)cc3)[nH]c3c(F)cc(F)cc32)C1` [Compound 47] the IC50 was greater than 1000 nM.
`O=C(CCN1CCCC1=O)N[C@H]1C[C@@H](c2c(-c3ccc(F)cc3)[nH]c3c(F)cc(F)cc32)C1` [Compound 48] was tested, and the IC50 was greater than 1000 nM.
`Cn1nccc1CC(=O)N[C@H]1C[C@@H](c2c(-c3ccc(F)cc3)[nH]c3c(F)cc(F)cc32)C1` [Compound 49] showed an IC50 greater than 1000 nM.
`O=C(CC1COC1)N[C@H]1C[C@@H](c2c(-c3ccc(F)cc3)[nH]c3c(F)cc(F)cc32)C1` [Compound 50] showed an IC50 greater than 1000 nM.
Work on `NS(=O)(=O)CCC(=O)N[C@H]1C[C@@H](c2c(-c3ccc(F)cc3)[nH]c3c(F)cc(F)cc32)C1` [Compound 51] yielded an IC50 greater than 1000 nM.
`CN1CCC(CC(=O)N[C@H]2C[C@@H](c3c(-c4ccc(F)cc4)[nH]c4c(F)cc(F)cc43)C2)CC1` [Compound 52] gave an IC50 greater than 1000 nM.

Same assay, conditions: Thallium Assay (IC50), HEK 293 T-Rex inducible stable clone expressing G1 APOL1
With `NC1CC(c2c(-c3ccc(F)cc3)[nH]c3c(F)cc(F)cc23)C1` (centres unmarked) [Compound 14, 3-[5,7-difluoro-2-(4-fluorophenyl)-1H-indol-3-yl]cyclobutanamine] the IC50 was less than 250 nM.
Molecule `N[C@H]1C[C@@H](c2c(-c3ccc(F)cc3)[nH]c3c(F)cc(F)cc32)C1` [Compound 28, (1s,3s)-3-(5,7-difluoro-2-(4-fluorophenyl)-1H-indol-3-yl)cyclobutan-1-amine] has an IC50 of less than 250 nM.
